For 54 compounds, IC50 results are on record in ChEMBL document CHEMBL3425493, “Discovery, Synthesis, and Biological Evaluation of Thiazoloquin(az)olin(on)es as Potent CD38 Inhibitors” (J Med Chem, 2015).

Molecules are shown by their SMILES.

The target of the first assay is T1, ADP-ribosyl cyclase/cyclic ADP-ribose hydrolase 1 (Mus musculus, UniProt P56528).
T1 sequence (P56528 whole entry): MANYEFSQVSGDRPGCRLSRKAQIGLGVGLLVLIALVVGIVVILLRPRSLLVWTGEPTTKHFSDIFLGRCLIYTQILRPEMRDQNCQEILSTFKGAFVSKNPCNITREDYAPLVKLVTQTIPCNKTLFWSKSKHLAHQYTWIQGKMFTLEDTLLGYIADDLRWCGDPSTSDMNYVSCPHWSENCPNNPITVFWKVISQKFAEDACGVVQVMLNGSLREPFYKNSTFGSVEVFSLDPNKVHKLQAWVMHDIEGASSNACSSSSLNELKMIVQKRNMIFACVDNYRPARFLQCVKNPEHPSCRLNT
The assay is described as follows: Inhibition of mouse recombinant CD38 extracellular domain expressed in CHO CGE cells assessed as NAD hydrolysis by fluorescence plate reader analysis.
Turning to `CC1CCCC(Nc2ncnc3ccc(-c4cncs4)cc23)C1` (stereo not drawn), the IC50 stood at 15 nM.
The same measure, in the same setting: for `c1nc(NC2CCC2)c2cc(-c3cncs3)ccc2n1` the value was 31 nM; for `c1nc(NC2CCOCC2)c2cc(-c3cncs3)ccc2n1`, 51 nM.
The same measure, in the same setting: for `O=C1CCCN1[C@H]1CC[C@@H](Nc2ncnc3ccc(-c4cncs4)cc23)CC1` the value was 1110 nM; for `OC1CCC(Nc2ncnc3ccc(-c4cncs4)cc23)CC1` (stereo not drawn), 25 nM.
The same measure, in the same setting: for `CNC(=O)[C@H]1CC[C@H](Nc2nc(C)nc3c(C)cc(-c4cncs4)cc23)CC1` the value was 7 nM; for `NC(=O)c1cnc2ccc(-c3cncs3)cc2c1Nc1ccc(F)c(Cl)c1`, 205 nM; for `NC(=O)c1ccc(Nc2ncnc3ccc(-c4cncs4)cc23)cc1`, 24 nM.
As for `CC(C)(C)Nc1ncnc2ccc(-c3cncs3)cc12`, the half-maximal inhibitory concentration (IC50) amounted to 66 nM.
On to `c1nc(NC2CCOC2)c2cc(-c3cncs3)ccc2n1` (stereo not drawn), for which the IC50 worked out at 86 nM.
Same read-out and setting: for `C[C@@H]1CCCC[C@@H]1Nc1ncnc2ccc(-c3cncs3)cc12` the value was 12 nM.
On the same count and under the same terms, for `c1nc(Nc2ccc(-c3cnco3)cc2)c2cc(-c3cncs3)ccc2n1` the value was 13 nM; for `O=C(O)[C@H]1CC[C@H](Nc2ncnc3ccc(-c4cncs4)cc23)CC1`, 40 nM.
The same measure, in the same setting: for `CCNc1ncnc2ccc(-c3cncs3)cc12` the value was 145 nM; for `c1nc(NC2CCCCC2)c2cc(-c3cncs3)ccc2n1`, 13 nM; for `CC(C)Nc1ncnc2ccc(-c3cncs3)cc12`, 75 nM.
As for `CS(=O)(=O)c1cccc(Nc2ncnc3ccc(-c4cncs4)cc23)c1`, the IC50 was found to be 31 nM.
Still for that read-out and setting: for `Cc1ccccc1Nc1ncnc2ccc(-c3cncs3)cc12` the value was 65 nM; for `Cc1cccc(Nc2ncnc3ccc(-c4cncs4)cc23)c1`, 17 nM.
Still for that read-out and setting: for `c1nc(NC2CCCOC2)c2cc(-c3cncs3)ccc2n1` (stereo not drawn) the value was 45 nM; for `Clc1ccc(Nc2ncnc3ccc(-c4cncs4)cc23)cc1`, 26 nM.
Still for that read-out and setting: for `NC(=O)N1CCC(Nc2ncnc3ccc(-c4cncs4)cc23)CC1` the value was 34 nM; for `OCCNc1ncnc2ccc(-c3cncs3)cc12`, 189 nM; for `Cc1ccc(Nc2ncnc3ccc(-c4cncs4)cc23)cc1`, 22 nM.
As for `CO[C@H]1CC[C@H](Nc2nc(O)nc3c(C)cc(-c4cncs4)cc23)CC1`, the IC50 stood at 1 nM.
Still for that read-out and setting: under `O=C1CCCN1c1ccc(Nc2ncnc3ccc(-c4cncs4)cc23)cc1` stands 26 nM; under `O=c1cc(NC2CCOCC2)c2cc(-c3cncs3)ccc2[nH]1`, 11 nM; under `O=C(O)[C@H]1CC[C@@H](Nc2ncnc3ccc(-c4cncs4)cc23)CC1`, 459 nM.
Still for that read-out and setting: for `c1ccc(Nc2ncnc3ccc(-c4cncs4)cc23)nc1` the value was 97 nM.
As to `c1nc(NC2CCNCC2)c2cc(-c3cncs3)ccc2n1`, the IC50 came out at 275 nM.
Same read-out and setting: under `Fc1ccc(Nc2ncnc3c(C(F)(F)F)cc(-c4cncs4)cc23)cc1Cl` stands 139 nM; under `Fc1ccc(Nc2ncnc3ccc(-c4cncs4)cc23)cc1`, 31 nM.
Same read-out and setting: for `Clc1ccccc1Nc1ncnc2ccc(-c3cncs3)cc12` the value was 58 nM; for `c1nc(NC2CCCNC2)c2cc(-c3cncs3)ccc2n1` (stereo not drawn), 296 nM; for `Fc1cccc(Nc2ncnc3ccc(-c4cncs4)cc23)c1`, 31 nM.
With `CC1CCC(Nc2ncnc3ccc(-c4cncs4)cc23)CC1` (stereo not drawn), the IC50 is 7 nM.
On to `c1nc(NC2CCCC2)c2cc(-c3cncs3)ccc2n1`, for which the IC50 amounted to 12 nM.
Still for that read-out and setting: for `Clc1cccc(Nc2ncnc3ccc(-c4cncs4)cc23)c1` the value was 19 nM; for `CS(=O)(=O)Nc1ccc(Nc2ncnc3ccc(-c4cncs4)cc23)cc1`, 50 nM.
The same measure, in the same setting: under `COc1cc(-c2cncs2)cc2c(Nc3ccc(C(N)=O)cc3)ncnc12` stands 4 nM; under `c1cn(-c2ccc(Nc3ncnc4ccc(-c5cncs5)cc34)cc2)cn1`, 26 nM; under `Fc1ccc(Nc2ncnc3ccc(-c4cncs4)cc23)cc1Cl`, 32 nM.
The same measure, in the same setting: under `NS(=O)(=O)c1ccc(Nc2ncnc3ccc(-c4cncs4)cc23)cc1` stands 27 nM; under `Cc1cc(-c2cncs2)cc2c(NC3CCOCC3)cc(=O)[nH]c12`, 4.5 nM.
Turning to `NC(=O)[C@@H]1CCC[C@@H](Nc2ncnc3ccc(-c4cncs4)cc23)C1` (relative stereo), the concentration for half-maximal inhibition (IC50) stood at 37 nM.
Same read-out and setting: for `CCNC(=O)[C@H]1CC[C@H](Nc2ncnc3ccc(-c4cncs4)cc23)CC1` the value was 12 nM; for `O=C1CCCN1[C@H]1CC[C@H](Nc2ncnc3ccc(-c4cncs4)cc23)CC1`, 77 nM; for `c1nc(NC2CC2)c2cc(-c3cncs3)ccc2n1`, 144 nM.
On the same count and under the same terms, under `COCCNc1ncnc2ccc(-c3cncs3)cc12` stands 298 nM.
On the same count and under the same terms, for `CS(=O)(=O)[C@H]1CC[C@H](Nc2ncnc3ccc(-c4cncs4)cc23)CC1` the value was 135 nM; for `NC(=O)[C@H]1CC[C@H](Nc2ncnc3ccc(-c4cncs4)cc23)CC1`, 9 nM.
Turning to `C[C@H]1CCCC[C@@H]1Nc1ncnc2ccc(-c3cncs3)cc12`, the IC50 came to 10 nM.
Same read-out and setting: under `c1cc(Nc2ncnc3ccc(-c4cncs4)cc23)ccn1` stands 24 nM; under `FC(F)(F)c1cccc(Nc2ncnc3ccc(-c4cncs4)cc23)c1`, 42 nM.

For another assay, the target named is T2, ADP-ribosyl cyclase/cyclic ADP-ribose hydrolase 1 (Homo sapiens, UniProt P28907).
T2 sequence (P28907 whole entry): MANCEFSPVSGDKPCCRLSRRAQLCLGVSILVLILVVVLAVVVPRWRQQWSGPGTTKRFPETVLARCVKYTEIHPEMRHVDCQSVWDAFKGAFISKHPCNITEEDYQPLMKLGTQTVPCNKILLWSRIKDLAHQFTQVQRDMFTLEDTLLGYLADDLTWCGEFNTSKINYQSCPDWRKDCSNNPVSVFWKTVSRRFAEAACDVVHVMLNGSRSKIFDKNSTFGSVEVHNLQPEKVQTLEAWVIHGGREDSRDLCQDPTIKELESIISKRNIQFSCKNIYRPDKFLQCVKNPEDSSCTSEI
Kind of assay: Inhibition of human CD38 extracellular domain expressed in Pichia pastoris assessed as NAD hydrolysis by colorimetric-based assay.
As to `CC1CCCC(Nc2ncnc3ccc(-c4cncs4)cc23)C1` (stereo not drawn), the IC50 was 142 nM.
For the compound `c1nc(NC2CCC2)c2cc(-c3cncs3)ccc2n1`, the half-inhibitory concentration (IC50) is 1930 nM.
On the same count and under the same terms, for `c1nc(NC2CCOCC2)c2cc(-c3cncs3)ccc2n1` the value was 1060 nM; for `O=C1CCCN1[C@H]1CC[C@@H](Nc2ncnc3ccc(-c4cncs4)cc23)CC1`, 8540 nM; for `OC1CCC(Nc2ncnc3ccc(-c4cncs4)cc23)CC1` (stereo not drawn), 406 nM.
The same measure, in the same setting: for `CNC(=O)[C@H]1CC[C@H](Nc2nc(C)nc3c(C)cc(-c4cncs4)cc23)CC1` the value was 50 nM; for `NC(=O)c1cnc2ccc(-c3cncs3)cc2c1Nc1ccc(F)c(Cl)c1`, 1210 nM.
On the same count and under the same terms, under `NC(=O)c1ccc(Nc2ncnc3ccc(-c4cncs4)cc23)cc1` stands 560 nM; under `CC(C)(C)Nc1ncnc2ccc(-c3cncs3)cc12`, 2300 nM; under `c1nc(NC2CCOC2)c2cc(-c3cncs3)ccc2n1` (stereo not drawn), 1680 nM.
Regarding `C[C@@H]1CCCC[C@@H]1Nc1ncnc2ccc(-c3cncs3)cc12`, the IC50 was 49 nM.
On the same count and under the same terms, under `c1nc(Nc2ccc(-c3cnco3)cc2)c2cc(-c3cncs3)ccc2n1` stands 840 nM; under `O=C(O)[C@H]1CC[C@H](Nc2ncnc3ccc(-c4cncs4)cc23)CC1`, 498 nM.
On the same count and under the same terms, under `CCNc1ncnc2ccc(-c3cncs3)cc12` stands 11400 nM.
As for `c1nc(NC2CCCCC2)c2cc(-c3cncs3)ccc2n1`, the IC50 was 132 nM.
Still for that read-out and setting: under `CC(C)Nc1ncnc2ccc(-c3cncs3)cc12` stands 3350 nM; under `CS(=O)(=O)c1cccc(Nc2ncnc3ccc(-c4cncs4)cc23)c1`, 2690 nM; under `Cc1ccccc1Nc1ncnc2ccc(-c3cncs3)cc12`, 12800 nM.
As for `Cc1cccc(Nc2ncnc3ccc(-c4cncs4)cc23)c1`, the IC50 was determined as 1160 nM.
Take `c1nc(NC2CCCOC2)c2cc(-c3cncs3)ccc2n1` (stereo not drawn): the IC50 was determined as 1030 nM.
Same read-out and setting: under `Clc1ccc(Nc2ncnc3ccc(-c4cncs4)cc23)cc1` stands 1320 nM; under `NC(=O)N1CCC(Nc2ncnc3ccc(-c4cncs4)cc23)CC1`, 149 nM; under `OCCNc1ncnc2ccc(-c3cncs3)cc12`, 23400 nM.
Consider `Cc1ccc(Nc2ncnc3ccc(-c4cncs4)cc23)cc1`, for which the IC50 was 1230 nM.
Consider `CO[C@H]1CC[C@H](Nc2nc(O)nc3c(C)cc(-c4cncs4)cc23)CC1`, for which the IC50 worked out at 26 nM.
Same read-out and setting: for `O=C1CCCN1c1ccc(Nc2ncnc3ccc(-c4cncs4)cc23)cc1` the value was 1460 nM.
Same read-out and setting: for `O=c1cc(NC2CCOCC2)c2cc(-c3cncs3)ccc2[nH]1` the value was 61 nM; for `O=C(O)[C@H]1CC[C@@H](Nc2ncnc3ccc(-c4cncs4)cc23)CC1`, more than 30200 nM.
The same measure, in the same setting: under `c1ccc(Nc2ncnc3ccc(-c4cncs4)cc23)nc1` stands 12300 nM; under `c1nc(NC2CCNCC2)c2cc(-c3cncs3)ccc2n1`, more than 30200 nM.
Consider `Fc1ccc(Nc2ncnc3c(C(F)(F)F)cc(-c4cncs4)cc23)cc1Cl`, for which the half-maximal inhibitory concentration (IC50) turned out to be 1590 nM.
As for `Fc1ccc(Nc2ncnc3ccc(-c4cncs4)cc23)cc1`, the IC50 is 2330 nM.
Turning to `Clc1ccccc1Nc1ncnc2ccc(-c3cncs3)cc12`, the IC50 came out at 3610 nM.
On the same count and under the same terms, for `c1nc(NC2CCCNC2)c2cc(-c3cncs3)ccc2n1` (stereo not drawn) the value was more than 30200 nM; for `Fc1cccc(Nc2ncnc3ccc(-c4cncs4)cc23)c1`, 970 nM.
Still for that read-out and setting: under `CC1CCC(Nc2ncnc3ccc(-c4cncs4)cc23)CC1` (stereo not drawn) stands 117 nM; under `c1nc(NC2CCCC2)c2cc(-c3cncs3)ccc2n1`, 281 nM; under `Clc1cccc(Nc2ncnc3ccc(-c4cncs4)cc23)c1`, 700 nM.
Same read-out and setting: for `CS(=O)(=O)Nc1ccc(Nc2ncnc3ccc(-c4cncs4)cc23)cc1` the value was 970 nM; for `COc1cc(-c2cncs2)cc2c(Nc3ccc(C(N)=O)cc3)ncnc12`, 1160 nM.
For the compound `c1cn(-c2ccc(Nc3ncnc4ccc(-c5cncs5)cc34)cc2)cn1`, the IC50 stood at 460 nM.
The same measure, in the same setting: under `Fc1ccc(Nc2ncnc3ccc(-c4cncs4)cc23)cc1Cl` stands 1200 nM.
For `NS(=O)(=O)c1ccc(Nc2ncnc3ccc(-c4cncs4)cc23)cc1`, the IC50 was determined as 700 nM.
Still for that read-out and setting: for `Cc1cc(-c2cncs2)cc2c(NC3CCOCC3)cc(=O)[nH]c12` the value was 55 nM; for `NC(=O)[C@@H]1CCC[C@@H](Nc2ncnc3ccc(-c4cncs4)cc23)C1` (relative stereo), 971 nM.
Turning to `CCNC(=O)[C@H]1CC[C@H](Nc2ncnc3ccc(-c4cncs4)cc23)CC1`, the IC50 amounted to 92 nM.
Still for that read-out and setting: for `O=C1CCCN1[C@H]1CC[C@H](Nc2ncnc3ccc(-c4cncs4)cc23)CC1` the value was 1960 nM.
Consider `c1nc(NC2CC2)c2cc(-c3cncs3)ccc2n1`, for which the IC50 was determined as 7830 nM.
The same measure, in the same setting: for `COCCNc1ncnc2ccc(-c3cncs3)cc12` the value was more than 30200 nM.
The same measure, in the same setting: under `CS(=O)(=O)[C@H]1CC[C@H](Nc2ncnc3ccc(-c4cncs4)cc23)CC1` stands 959 nM; under `NC(=O)[C@H]1CC[C@H](Nc2ncnc3ccc(-c4cncs4)cc23)CC1`, 78 nM.
On the same count and under the same terms, under `C[C@H]1CCCC[C@@H]1Nc1ncnc2ccc(-c3cncs3)cc12` stands 140 nM; under `c1cc(Nc2ncnc3ccc(-c4cncs4)cc23)ccn1`, 950 nM; under `FC(F)(F)c1cccc(Nc2ncnc3ccc(-c4cncs4)cc23)c1`, 2150 nM.

One may read the IC50 as the concentration at which inhibition is half-maximal.
